From publication PMC10720369 (Frontiers in Plant Science, 2023)

Tested on: ScAMT3;3
Conditions: labelled compound; 0-500 µM 15N-NH4+; 35-d-old N-starved plants; line 35S::ScAMT3;3 by results and Figure 4C (methods b28 say proScAMT3;3 line); residual qko uptake present; NH3 may be the transported

## N [NH4+]
  Km: 271 µM
